# Results as given in patent US12404241B2 (Celgene Corporation, priority 2018, dated 2025).
# Structures can show the parent of a compound that is named as a salt.
# Biological target: T1, AR (Homo sapiens, UniProt P10275)
# T1 construct: endogenous in cells; host or cells: VCaP cells
# T1 sequence (P10275 1-920): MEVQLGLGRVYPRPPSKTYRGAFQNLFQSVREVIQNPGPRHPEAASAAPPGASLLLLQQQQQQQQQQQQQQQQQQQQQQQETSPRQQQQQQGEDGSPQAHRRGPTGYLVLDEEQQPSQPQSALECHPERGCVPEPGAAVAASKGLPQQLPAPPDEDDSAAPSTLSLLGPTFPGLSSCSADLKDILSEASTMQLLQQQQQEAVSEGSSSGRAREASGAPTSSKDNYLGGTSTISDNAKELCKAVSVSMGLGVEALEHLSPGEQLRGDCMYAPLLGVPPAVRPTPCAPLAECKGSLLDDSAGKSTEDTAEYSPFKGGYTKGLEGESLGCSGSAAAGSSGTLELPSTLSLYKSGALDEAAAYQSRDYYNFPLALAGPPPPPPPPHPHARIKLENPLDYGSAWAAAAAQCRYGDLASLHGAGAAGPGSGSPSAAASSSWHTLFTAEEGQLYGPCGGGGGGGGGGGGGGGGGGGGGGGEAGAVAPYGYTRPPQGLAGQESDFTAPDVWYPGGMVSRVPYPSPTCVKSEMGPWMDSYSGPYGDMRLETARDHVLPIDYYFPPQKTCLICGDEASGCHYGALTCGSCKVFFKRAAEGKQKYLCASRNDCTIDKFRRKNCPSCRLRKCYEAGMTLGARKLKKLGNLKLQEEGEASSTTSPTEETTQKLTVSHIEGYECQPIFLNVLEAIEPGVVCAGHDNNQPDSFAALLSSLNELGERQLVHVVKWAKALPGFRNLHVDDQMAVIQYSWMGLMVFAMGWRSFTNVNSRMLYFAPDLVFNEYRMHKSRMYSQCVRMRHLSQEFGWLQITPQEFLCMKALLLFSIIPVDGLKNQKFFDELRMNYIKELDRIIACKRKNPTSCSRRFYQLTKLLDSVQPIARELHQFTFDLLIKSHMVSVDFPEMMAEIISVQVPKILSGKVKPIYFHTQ
# Test: VCAP AR Degradation Assay
# Format: cell-based
# Details: for Y (AR degradation efficiency, % of DMSO control): class symbols *; for DC50: class symbols A-C, read-out: DC50
# Description: VCAP AR Degradation Assay. Test compounds were pre-dispensed into a Corning CellBind 96-well clear bottom plate (Cat #3300) using an acoustic dispenser to make a 10-point concentration series at 1:3 dilution for each compound. The final top concentration of each compound was 5 μM. DMSO at a final concentration of 0.1% was used as a control. VCaP cells cultured in DMEM with 8% fetal bovine serum (FBS) were seeded at 50K cells per well in a 200 μL volume into the compound plate and incubated at 37° C. in a CO2 incubator for 24 h. The medium was carefully removed from the cells and the plate was placed on ice. One hundred μL of ice-cold 1x cell lysis buffer from Cell Signaling Technologies (Cat #9803) was added to each well of the cells and the plate was incubated at 4° C. on a shaker for 1 h. Fifteen μL of cell lysate was used for AR ELISA detection using a PathScan Total Sandwich AR ELISA kit (Cell Signaling Technology, Cat #12580). AR levels in compound-treated wells were normalized to that of DMSO control and expressed as percent of control (PoC) (y). A Four Parameter Logistic Model (Sigmoidal Dose-Response Model) was used to determine the compound's DC50, and EC50, using the following equation:
# [formula] • A=YMin (lowest AR level normalized to DMSO control in response to compound treatment, as determined by curve fit) • B=YMax (maximum AR level as determined by curve fit) • C=EC50 • D=Hill Slope • x=compound concentration • EC50=the concentration of compound when y=(YMax−YMin)/2 • DC50=the concentration of the compound when y=50% of DMSO control (50% AR degradation) • y=AR protein level normalized to DMSO control
# The lowest measured AR level normalized to DMSO control in response to compound treatment, termed Y value, was used to characterize the compound-mediated AR degradation efficiency.
Compound,"Y (AR degradation efficiency, % of DMSO control)",DC50 [nM]
"C[C@@H]1CN(CCOc2ccc(N3C(=S)N(c4ccc(C#N)c(Cl)c4)C(=O)C3(C)C)cc2C2CC2)C[C@H](C)N1CC(=O)Nc1cc(Cl)cc(NC2CCC(=O)NC2=O)c1 (stereo partly drawn) [Example 220, 2-((2S,6R)-4-(2-(4-(3-(3-chloro-4-cyanophenyl)-5,5-dimethyl-4-oxo-2-thioxoimidazolidin-1-yl)-2-cyclopropylphenoxy)ethyl)-2,6-dimethylpiperazin-1-yl)-N-(3-chloro-5-(2,6-dioxopiperidin-3-ylamino)phenyl)acetamide]",** (25%<Y<=35%),< 100
"CCc1cc(N2C(=S)N(c3ccc(C#N)c(C(F)(F)F)c3)C(=O)C2(C)C)ccc1OCCN1C[C@H](C)N(CC(=O)Nc2cccc(NC3CCC(=O)NC3=O)c2)[C@@H](C)C1 (stereo partly drawn) [Example 146, 2-((2S,6S)-4-(2-(4-(3-(4-cyano-3-(trifluoromethyl)phenyl)-5,5-dimethyl-4-oxo-2-thioxoimidazolidin-1-yl)-2-ethylphenoxy)ethyl)-2,6-dimethylpiperazin-1-yl)-N-(3-(2,6-dioxopiperidin-3-ylamino)phenyl)acetamide]",* (0<Y<=25%),< 100
"Cc1c(N2C(=O)C(C)(C)N(c3ccc(OCCN4CCN(CC(=O)Nc5cccc(NC6CCC(=O)NC6=O)c5)CC4)c(F)c3)C2=S)ccc(C#N)c1C(F)(F)F (stereo not drawn) [Example 96, 2-(4-(2-(4-(3-(4-cyano-2-methyl-3-(trifluoromethyl)phenyl)-5,5-dimethyl-4-oxo-2-thioxoimidazolidin-1-yl)-2-fluorophenoxy)ethyl)piperazin-1-yl)-N-(3-(2,6-dioxopiperidin-3-ylamino)phenyl)acetamide]",*** (35%<Y<50%),< 100
"C[C@@H]1CN(CCOc2ccc(N3C(=S)N(c4ccc(C#N)c(C(F)(F)F)c4)C(=O)C34CCC4)cc2CCF)CCN1CC(=O)Nc1cc(Cl)cc(NC2CCC(=O)NC2=O)c1 (stereo partly drawn) [Example 143, N-(3-chloro-5-(2,6-dioxopiperidin-3-ylamino)phenyl)-2-((R)-4-(2-(4-(7-(4-cyano-3-(trifluoromethyl)phenyl)-8-oxo-6-thioxo-5,7-diazaspiro[3.4]octan-5-yl)-2-(2-fluoroethyl)phenoxy)ethyl)-2-methylpiperazin-1-yl)acetamide]",* (0<Y<=25%),< 100
"Cc1cc(NC(=O)CN2CCN(CCOc3ccc(N4C(=S)N(c5ccc(C#N)c(C(F)(F)F)c5)C(=O)C4(C)C)cc3F)CC2)cc(NC2CCC(=O)NC2=O)c1 (stereo not drawn) [Example 15, hydrochloride]",** (25%<Y<=35%),< 100
"CCc1cc(N2C(=S)N(c3cnc(C#N)c(C(F)(F)F)c3)C(=O)C2(C)C)ccc1OCCN1CCN(CC(=O)Nc2cc(C#N)cc(NC3CCC(=O)NC3=O)c2)[C@H](C)C1 (stereo partly drawn) [Example 155, N-(3-cyano-5-(2,6-dioxopiperidin-3-ylamino)phenyl)-2-((R)-4-(2-(4-(3-(6-cyano-5-(trifluoromethyl)pyridin-3-yl)-5,5-dimethyl-4-oxo-2-thioxoimidazolidin-1-yl)-2-ethylphenoxy)ethyl)-2-methylpiperazin-1-yl)acetamide]",* (0<Y<=25%),< 100
"CC(C)c1cc(N2C(=S)N(c3ccc(C#N)c(C(F)(F)F)c3)C(=O)C2(C)C)ccc1OCCN1CCN(CC(=O)Nc2cccc(NC3CCC(=O)NC3=O)c2)CC1 (stereo not drawn) [Example 17, hydrochloride]",* (0<Y<=25%),< 100
"CC(C)c1cc(N2C(=S)N(c3cnc(C#N)c(C(F)(F)F)c3)C(=O)C2(C)C)ccc1OCCN1CCN(CC(=O)Nc2cc(Cl)cc(NC3CCC(=O)NC3=O)c2)CC1 (stereo not drawn) [Example 93, N-(3-chloro-5-(2,6-dioxopiperidin-3-ylamino)phenyl)-2-(4-(2-(4-(3-(6-cyano-5-(trifluoromethyl)pyridin-3-yl)-5,5-dimethyl-4-oxo-2-thioxoimidazolidin-1-yl)-2-isopropylphenoxy)ethyl)piperazin-1-yl)acetamide]",* (0<Y<=25%),< 100
"CCc1cc(N2C(=S)N(c3ccc(C#N)c(C(F)(F)F)c3)C(=O)C2(C)C)ccc1OCCN1CCN(CC(=O)Nc2cc(NC3CCC(=O)NC3=O)ccc2Cl)CC1 (stereo not drawn) [Example 41, hydrochloride]",* (0<Y<=25%),< 100
"C[C@@H]1CN(CCOc2ccc(N3C(=S)N(c4cnc(C#N)c(C(F)(F)F)c4)C(=O)C34CCC4)cc2C2CC2)C[C@H](C)N1CC(=O)Nc1cc(F)cc(NC2CCC(=O)NC2=O)c1 (stereo partly drawn) [Example 218, 2-((2S,6R)-4-(2-(4-(7-(6-cyano-5-(trifluoromethyl)pyridin-3-yl)-8-oxo-6-thioxo-5,7-diazaspiro[3.4]octan-5-yl)-2-cyclopropylphenoxy)ethyl)-2,6-dimethylpiperazin-1-yl)-N-(3-(2,6-dioxopiperidin-3-ylamino)-5-fluorophenyl)acetamide]",* (0<Y<=25%),< 100
"CC1(C)C(=O)N(c2cnc(C#N)c(C(F)(F)F)c2)C(=S)N1c1ccc(OCCN2CCN(CC(=O)Nc3cc(Cl)cc(NC4CCC(=O)NC4=O)c3)CC2)c(Cl)c1 (stereo not drawn) [Example 14, hydrochloride]",* (0<Y<=25%),< 100
"CC1(C)C(=O)N(c2cnc(C#N)c(C(F)(F)F)c2)C(=S)N1c1ccc(OCCN2CCN(CC(=O)Nc3cc(NC4CCC(=O)NC4=O)ccc3F)CC2)c(CC(F)F)c1 (stereo not drawn) [Example 66, 2-(4-(2-(4-(3-(6-cyano-5-(trifluoromethyl)pyridin-3-yl)-5,5-dimethyl-4-oxo-2-thioxoimidazolidin-1-yl)-2-(2,2-difluoroethyl)phenoxy)ethyl)piperazin-1-yl)-N-(5-(2,6-dioxopiperidin-3-ylamino)-2-fluorophenyl)acetamide]",* (0<Y<=25%),< 100
"CCc1cc(N2C(=S)N(c3ccc(C#N)c(C(F)(F)F)c3)C(=O)C23CCCC3)ccc1OCCN1C[C@@H](C)N(CC(=O)Nc2cccc(NC3CCC(=O)NC3=O)c2)[C@@H](C)C1 (stereo partly drawn) [Example 267, 2-((2S,6R)-4-(2-(4-(3-(4-cyano-3-(trifluoromethyl)phenyl)-4-oxo-2-thioxo-1,3-diazaspiro[4.4]nonan-1-yl)-2-ethylphenoxy)ethyl)-2,6-dimethylpiperazin-1-yl)-N-(3-(2,6-dioxopiperidin-3-ylamino)phenyl)acetamide]",* (0<Y<=25%),< 100
"CCc1cc(N2C(=S)N(c3ccc(C#N)c(C(F)(F)F)c3)C(=O)C2(C)C)c(F)cc1OCCN1C[C@@H](C)N(CC(=O)Nc2cccc(NC3CCC(=O)NC3=O)c2)[C@@H](C)C1 (stereo partly drawn) [Example 247, 2-((2S,6R)-4-(2-(4-(3-(4-cyano-3-(trifluoromethyl)phenyl)-5,5-dimethyl-4-oxo-2-thioxoimidazolidin-1-yl)-2-ethyl-5-fluorophenoxy)ethyl)-2,6-dimethylpiperazin-1-yl)-N-(3-(2,6-dioxopiperidin-3-ylamino)phenyl)acetamide]",* (0<Y<=25%),< 100
"CCc1cc(N2C(=S)N(c3cnc(C#N)c(C(F)(F)F)c3)C(=O)C2(C)C)ccc1OCCN1CCN(CC(=O)Nc2cccc(NC3CCC(=O)NC3=O)c2)[C@H](C)C1 (stereo partly drawn) [Example 81, 2-((R)-4-(2-(4-(3-(6-cyano-5-(trifluoromethyl)pyridin-3-yl)-5,5-dimethyl-4-oxo-2-thioxoimidazolidin-1-yl)-2-ethylphenoxy)ethyl)-2-methylpiperazin-1-yl)-N-(3-(2,6-dioxopiperidin-3-ylamino)phenyl)acetamide]",* (0<Y<=25%),< 100
